The target of data set [1] is T1, 3',5'-cyclic-AMP phosphodiesterase 4B (Homo sapiens, UniProt Q07343). Briefly: Inhibition of PDE4B.
The target in data set [2] is cAMP and cAMP-inhibited cGMP 3',5'-cyclic phosphodiesterase 10A (Homo sapiens, UniProt Q9Y233). Nature of the data set: Inhibition of PDE10.
Data set [3] deals with Dual 3',5'-cyclic-AMP and -GMP phosphodiesterase 11A (Homo sapiens, UniProt Q9HCR9). Briefly: Inhibition of PDE11.
Data set [4] is filed under the species Homo sapiens. Nature of the data set: Selectivity for PDE4B over PDE10.
The species named for data set [5] is Homo sapiens. Nature of the data set: Selectivity for PDE4B over PDE11.
Data set [6] concerns the target T1, 3',5'-cyclic-AMP phosphodiesterase 4B. Nature of the data set: Inhibition of PDE4B at 1 uM.
Data set [7] can be described thus: Cmax in rat at 10 mg/kg, po. On the set-up: dose 10 mg/kg, route oral. The settings on record: in vivo. It counts as ADME, organism-based.
In data set [8] the test system is Rattus norvegicus. Briefly: Antiinflammatory activity in po dosed rat lipopolysaccharide-induced pulmonary inflammation model assessed as inhibition of polymorphonuclear cells. It is filed as functional.
Data set [9] relates to Rattus norvegicus. Nature of the data set: Antiinflammatory activity in rat lipopolysaccharide-induced pulmonary inflammation model assessed as inhibition of polymorphonuclear cells at 3 mg/kg, po. It counts as functional.
The next data set relates to Cynomolgus monkey. Briefly: AUC in cynomolgus monkey at 30 mg/kg, po. Set-up: dose 30 mg/kg, route oral. Conditions: in vivo. It is filed as ADME, organism-based, Macaca fascicularis, Plasma.
Data set [10] is described as follows: Cmax in cynomolgus monkey at 30 mg/kg, po. It counts as ADME, organism-based, Macaca fascicularis. On the set-up: dose 30 mg/kg, route oral. Conditions: in vivo.
The subject of data set [11] is Rattus norvegicus. Briefly: Antiinflammatory activity in rat lipopolysaccharide-induced pulmonary inflammation model assessed as inhibition of polymorphonuclear cells at 1 mg/kg, po. It is filed as functional.

cAMP and cAMP-inhibited cGMP 3',5'-cyclic phosphodiesterase 10A, sequence (Q9Y233 whole entry): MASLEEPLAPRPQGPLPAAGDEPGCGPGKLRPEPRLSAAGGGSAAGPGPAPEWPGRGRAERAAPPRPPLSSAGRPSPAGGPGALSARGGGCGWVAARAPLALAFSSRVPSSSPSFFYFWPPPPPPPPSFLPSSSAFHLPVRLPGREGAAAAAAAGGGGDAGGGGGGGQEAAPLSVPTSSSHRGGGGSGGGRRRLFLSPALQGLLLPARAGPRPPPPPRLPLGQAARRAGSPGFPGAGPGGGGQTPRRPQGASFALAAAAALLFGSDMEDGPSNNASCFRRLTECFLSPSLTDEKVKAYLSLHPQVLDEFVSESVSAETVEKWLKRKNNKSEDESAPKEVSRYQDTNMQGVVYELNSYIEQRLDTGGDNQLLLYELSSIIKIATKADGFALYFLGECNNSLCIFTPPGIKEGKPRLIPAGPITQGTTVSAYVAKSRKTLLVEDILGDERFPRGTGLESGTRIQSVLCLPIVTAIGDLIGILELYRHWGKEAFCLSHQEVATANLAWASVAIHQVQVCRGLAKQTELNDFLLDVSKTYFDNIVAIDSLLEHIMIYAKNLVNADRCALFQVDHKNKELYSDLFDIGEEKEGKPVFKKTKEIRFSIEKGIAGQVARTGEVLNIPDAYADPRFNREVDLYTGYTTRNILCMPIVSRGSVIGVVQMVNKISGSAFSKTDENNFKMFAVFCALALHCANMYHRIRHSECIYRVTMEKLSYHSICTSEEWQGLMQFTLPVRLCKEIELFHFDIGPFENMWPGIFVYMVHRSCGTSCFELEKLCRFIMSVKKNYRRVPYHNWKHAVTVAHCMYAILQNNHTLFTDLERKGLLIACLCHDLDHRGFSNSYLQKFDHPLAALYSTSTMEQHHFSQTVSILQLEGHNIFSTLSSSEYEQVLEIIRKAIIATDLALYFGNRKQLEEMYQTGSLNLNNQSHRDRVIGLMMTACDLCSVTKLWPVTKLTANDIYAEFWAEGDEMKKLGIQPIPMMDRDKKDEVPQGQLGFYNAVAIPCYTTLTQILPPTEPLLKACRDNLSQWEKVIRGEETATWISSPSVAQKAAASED
Dual 3',5'-cyclic-AMP and -GMP phosphodiesterase 11A, sequence (Q9HCR9 whole entry): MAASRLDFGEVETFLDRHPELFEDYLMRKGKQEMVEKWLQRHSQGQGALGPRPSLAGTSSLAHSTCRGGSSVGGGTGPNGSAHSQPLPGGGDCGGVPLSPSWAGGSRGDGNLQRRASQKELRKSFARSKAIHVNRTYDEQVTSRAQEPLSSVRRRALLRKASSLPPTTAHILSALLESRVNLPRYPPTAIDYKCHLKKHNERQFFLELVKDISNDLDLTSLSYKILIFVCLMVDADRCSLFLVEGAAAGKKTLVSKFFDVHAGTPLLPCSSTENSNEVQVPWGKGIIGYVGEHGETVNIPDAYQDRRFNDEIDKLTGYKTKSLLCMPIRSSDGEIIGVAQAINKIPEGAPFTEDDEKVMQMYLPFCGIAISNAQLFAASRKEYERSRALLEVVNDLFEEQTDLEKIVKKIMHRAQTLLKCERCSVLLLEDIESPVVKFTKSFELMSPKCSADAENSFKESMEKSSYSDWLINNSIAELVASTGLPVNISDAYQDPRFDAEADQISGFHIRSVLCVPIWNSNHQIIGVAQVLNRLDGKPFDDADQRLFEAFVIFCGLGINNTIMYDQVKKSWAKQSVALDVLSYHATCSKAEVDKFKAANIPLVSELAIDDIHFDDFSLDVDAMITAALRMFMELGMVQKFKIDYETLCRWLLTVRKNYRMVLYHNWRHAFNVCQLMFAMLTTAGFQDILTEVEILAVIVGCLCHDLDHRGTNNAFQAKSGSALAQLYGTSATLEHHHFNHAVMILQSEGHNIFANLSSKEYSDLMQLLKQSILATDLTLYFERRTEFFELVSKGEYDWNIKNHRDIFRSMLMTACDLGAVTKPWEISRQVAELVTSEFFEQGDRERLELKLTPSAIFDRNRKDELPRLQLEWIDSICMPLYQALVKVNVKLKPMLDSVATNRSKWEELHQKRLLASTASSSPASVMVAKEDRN
T1 sequence (Q07343 whole entry): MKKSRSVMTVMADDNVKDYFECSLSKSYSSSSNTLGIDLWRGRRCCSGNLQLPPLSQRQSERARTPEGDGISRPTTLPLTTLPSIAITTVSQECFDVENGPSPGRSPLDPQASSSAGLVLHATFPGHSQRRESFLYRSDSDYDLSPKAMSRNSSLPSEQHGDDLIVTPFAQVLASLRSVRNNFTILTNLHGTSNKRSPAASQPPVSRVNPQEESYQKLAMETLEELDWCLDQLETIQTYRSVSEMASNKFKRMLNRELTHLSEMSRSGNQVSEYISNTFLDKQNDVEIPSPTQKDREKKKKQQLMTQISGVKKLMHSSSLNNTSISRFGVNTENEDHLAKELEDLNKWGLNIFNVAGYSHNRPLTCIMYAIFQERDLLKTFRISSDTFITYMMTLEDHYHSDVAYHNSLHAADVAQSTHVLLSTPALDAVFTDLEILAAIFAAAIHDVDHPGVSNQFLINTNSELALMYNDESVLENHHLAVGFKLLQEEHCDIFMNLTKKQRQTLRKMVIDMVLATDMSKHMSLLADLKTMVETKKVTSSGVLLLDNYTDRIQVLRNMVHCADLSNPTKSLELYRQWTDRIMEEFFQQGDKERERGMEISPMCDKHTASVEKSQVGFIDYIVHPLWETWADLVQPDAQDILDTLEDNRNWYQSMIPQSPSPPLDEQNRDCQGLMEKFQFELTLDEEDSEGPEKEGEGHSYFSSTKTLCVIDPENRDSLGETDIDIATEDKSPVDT

Take `CNC(=O)c1nc(-c2ccc(OC)c3nc(C(F)(F)F)ccc23)oc1CN`: the IC50 in data set [1] is 110 nM.

As to `COc1ccc(-c2nc(C(=O)N3CCN(C(=O)c4cc(C)[nH]n4)CC3)c(CN)o2)c2ccc(C(F)(F)F)nc12`, the half-maximal inhibitory concentration (IC50) in data set [1] stood at 0.5 nM; in data set [2] it was 1500 nM; in [3] it was 1000 nM. For the same molecule, the Selectivity ratio in the data set listed under Homo sapiens [4] and in the data set listed under Homo sapiens [5] was 1000 each time.

Consider `COc1ccc(-c2nc(C(N)=O)c(CN3CCCCC3)o2)c2ccc(C(F)(F)F)nc12`, for which the inhibition in data set [6] was found to be 27%.

As for `COc1ccc(-c2nc(C(=O)N3CCC3)c(CN)o2)c2ccc(C(F)(F)F)nc12`, in [1], the half-inhibitory concentration (IC50) was 31 nM.

`COc1ccc(C(=O)Nc2c(Cl)c[n+]([O-])cc2Cl)c2ccc(C(F)(F)F)nc12` [SCH-351591]: the IC50 in [1] is 60 nM; in [2], greater than 10000 nM; in [3], greater than 10000 nM.

Regarding `CCc1coc(-c2ccc(OC)c3nc(C(F)(F)F)ccc23)n1`, 670 nM corresponded to half-maximal inhibition in data set [1] (IC50).

Turning to `CCN(CC)Cc1oc(-c2ccc(OC)c3nc(C(F)(F)F)ccc23)nc1C(N)=O`, the inhibition in data set [6] stood at 21%.

Turning to `COc1ccc(-c2nc(CCl)c(C)o2)c2ccc(C(F)(F)F)nc12`, the 50% inhibitory concentration (IC50) in data set [1] is 470 nM.

In the case of `COc1ccc(-c2nc(C(=O)N3CCC(O)(c4ccccc4)CC3)c(CN)o2)c2ccc(C(F)(F)F)nc12`, the results for the 50% inhibitory concentration (IC50) in data set [1], in data set [2] and in data set [3] were 2 nM, 600 nM and 500 nM, respectively. This molecule gave a peak concentration (Cmax) in data set [7] of 170 nM. In the data set on Rattus norvegicus [8], the 50% effective dose (ED50) was 2 mg/kg.

Regarding `COc1ccc(-c2nc(CN)c(C)o2)c2ccc(C(F)(F)F)nc12`, it took 80 nM to reach half-maximal inhibition in data set [1] (IC50).

Take `COc1ccc(-c2nc(CN)c(C(N)=O)o2)c2ccc(C(F)(F)F)nc12`: in [1], the concentration for half-maximal inhibition (IC50) is 76 nM.

`COc1ccc(-c2nc(C=O)c(C)o2)c2ccc(C(F)(F)F)nc12` yielded a concentration for half-maximal inhibition (IC50) in data set [1] of 310 nM.

In the case of `COc1cc(OC)nc(N2CCN(C(=O)c3nc(-c4ccc(OC)c5nc(C(F)(F)F)ccc45)oc3CN)CC2)n1`, the figures for the half-inhibitory concentration (IC50) in [1], in [2] and in data set [3] were 2.2 nM, 760 nM and 970 nM, respectively. In addition, in data set [7], the Cmax worked out at 230 nM. For the same molecule, the 50% effective dose (ED50) in the data set with Rattus norvegicus [8] is 2 mg/kg.

As for `COc1ccc(-c2nc(C(=O)N3CCN(c4ncccn4)CC3)c(CN)o2)c2ccc(C(F)(F)F)nc12`, the concentration for half-maximal inhibition (IC50) worked out at 19 nM in [1], 430 nM in data set [2] and 2000 nM in [3]. The Cmax in data set [7] stood at 9500 nM; in [10] it was 13000 nM. Moreover, in the data set with Rattus norvegicus [9], the inhibition in vivo at 3 mg/kg was determined as 64%. In the data set with Cynomolgus monkey, this molecule registered an AUC of 130 µM·h.

In the case of `COc1ccc(-c2nc(C(=O)N3CCN(S(=O)(=O)N(C)C)CC3)c(CN)o2)c2ccc(C(F)(F)F)nc12`, the IC50 in data set [1] was determined as 1.2 nM; in data set [2] it was 1700 nM; in data set [3] it was 3300 nM. Also, the Selectivity ratio in the data set filed under Homo sapiens [4] and in the data set listed under Homo sapiens [5] was 1000 in each case.

For the molecule `COc1ccc(C(=O)Nc2c(Cl)cncc2Cl)c2ccc(C(F)(F)F)nc12`, the IC50 in [1] was 20 nM; in [2], greater than 10000 nM; in data set [3], 7300 nM.

In the case of `COc1ccc(-c2nc(C(=O)O)c(CN)o2)c2ccc(C(F)(F)F)nc12`, in data set [1], the IC50 is 53 nM.

For `COc1ccc(-c2nc(C(=O)N3CCN(C(=O)c4ccccn4)CC3)c(CN)o2)c2ccc(C(F)(F)F)nc12`, the half-maximal inhibitory concentration (IC50) in data set [1] was determined as 1 nM; in data set [2], 1900 nM; in data set [3], 2100 nM. In addition, the Selectivity ratio in the data set listed under Homo sapiens [4] and in the data set listed under Homo sapiens [5] was 1000 in each case. This molecule also showed a peak concentration (Cmax) in data set [7] of 730 nM. In addition, the 50% effective dose (ED50) in the data set with Rattus norvegicus [8] was 0.6 mg/kg.

On to `COc1ccc(-c2nc(C(N)=O)c(CN3CCCC3)o2)c2ccc(C(F)(F)F)nc12`, for which the inhibition in [6] stood at 31%.

`CCN(CC)C(=O)c1nc(-c2ccc(OC)c3nc(C(F)(F)F)ccc23)oc1CN` displayed a half-inhibitory concentration (IC50) in data set [1] of 62 nM.

Turning to `CO/N=C(\c1ccccn1)C1CCN(C(=O)c2nc(-c3ccc(OC)c4nc(C(F)(F)F)ccc34)oc2CN)CC1`, the IC50 in [1] is 1.6 nM; in data set [2], 120 nM; in [3], 1500 nM. Also, the peak concentration (Cmax) in data set [7] came out at 610 nM. Further, the inhibition in vivo at 1 mg/kg with Rattus norvegicus [11] is 45%.

The molecule `COc1ccc(-c2nc(C)co2)c2ccc(C(F)(F)F)nc12` gave a concentration for half-maximal inhibition (IC50) in data set [1] of 350 nM.

Take `COc1ccc(-c2nc(C(=O)N3CCCCC3)c(CN)o2)c2ccc(C(F)(F)F)nc12`: in data set [1], the IC50 was determined as 49 nM.

Regarding `COc1ccc(-c2nc(C(=O)O)c(C)o2)c2ccc(C(F)(F)F)nc12`, the IC50 in [1] came to 390 nM.

In [1], `CNCc1oc(-c2ccc(OC)c3nc(C(F)(F)F)ccc23)nc1C(N)=O` came in with a half-inhibitory concentration (IC50) of 580 nM.

`COc1ccc(-c2nc(C(N)=O)c(CN(C)C)o2)c2ccc(C(F)(F)F)nc12` displayed an inhibition in data set [6] of 40%.

With `COc1ccc(-c2nc(C(=O)N3CCCC3)c(CN)o2)c2ccc(C(F)(F)F)nc12`, the IC50 in data set [1] was found to be 17 nM.

As for `COc1ccc(-c2nc(CO)c(C)o2)c2ccc(C(F)(F)F)nc12`, in data set [1], 470 nM corresponded to half-maximal inhibition (IC50).

In [6], `COc1ccc(-c2nc(C(N)=O)c(CNC3CCCC3)o2)c2ccc(C(F)(F)F)nc12` registered an inhibition of 39%.

Regarding `COc1ccc(-c2nc(C(=O)N3CCN(C(=O)OC(C)(C)C)CC3)c(CN)o2)c2ccc(C(F)(F)F)nc12`, the results for the IC50 in data set [1], in [2] and in data set [3] were 4.3 nM, 1100 nM and 600 nM, respectively. The molecule also showed a Cmax in [7] of 1400 nM. In the data set on Rattus norvegicus [9], the inhibition in vivo at 3 mg/kg was found to be 56%.

For `COc1ccc(-c2nc(C(=O)N3CCC4(CC3)C(=O)NCN4c3ccccc3)c(CN)o2)c2ccc(C(F)(F)F)nc12`, the IC50 in data set [1] stood at 1 nM; in [2] it was 20 nM; in data set [3], 130 nM. Besides, the Selectivity ratio is 20 in the data set filed under Homo sapiens [4] and 130 in the data set listed under Homo sapiens [5].

On to `COc1ccc(-c2nc(C(N)=O)c(C)o2)c2ccc(C(F)(F)F)nc12`, for which the IC50 in data set [1] stood at 88 nM.

With `COc1ccc(-c2nc(C(=O)N3CC[C@@H](NC(=O)OC(C)(C)C)C3)c(CN)o2)c2ccc(C(F)(F)F)nc12`, the concentration for half-maximal inhibition (IC50) in data set [1] stood at 1.4 nM; in data set [2] it was 130 nM; in data set [3], 820 nM. This molecule had a maximum concentration (Cmax) in [7] of 610 nM. Besides, in the data set on Rattus norvegicus [8], the ED50 amounted to 0.2 mg/kg.

Take `COc1ccc(-c2nc(C(N)=O)c(CN)o2)c2ccc(C(F)(F)F)nc12`: the IC50 in data set [1] was 24 nM; in [2] it was 2800 nM; in [3], 7600 nM.

For the origin of these results see ChEMBL document CHEMBL1139777, “Discovery of a highly potent series of oxazole-based phosphodiesterase 4 inhibitors” (Bioorg Med Chem Lett, 2007).
